According to patent US20250049036A1 (priority 2021, published 2025):

Experiments:
Alternaria solani = Alternaria solani test in tomato, preventive, greenhouse; format: in vivo; conditions: preventive spray on tomato, inoculated one day after treatment, read-out: control (efficacy, disease severity) compared to the untreated check
Method: The respective compound was dissolved in 2% dimethyl sulfoxide/acetone and then mixed with water containing an emulsifier to the calibrated spray volume of 30 mL. Each spray solution was poured into a spray bottle for further application.
(§1) To test the preventive activity of a compound, healthy young tomato plants, raised in the greenhouse, were sprayed with the active compound preparation at the stated application rate inside the spray cabinets using hollow cone nozzles. One day after treatment, the plants were inoculated with a spore suspension containing 0.24×10^6 Alternaria solani inoculum. The inoculated plants were then kept in a greenhouse chamber at 22-24° C. temperature and 90-95% relative humidity for disease expression.
(§2) A visual assessment of the compound's performance was carried out by rating the disease severity (0 100% scale) on treated plants 3, 7, 10 and 15 days after application. Efficacy (% control) of the compound was calculated by comparing the disease rating in the treatment with the one of the untreated control. The treated plants were also assessed for plant damage by recording symptoms like necrosis, chlorosis and stunting.

Phytophthora infestans [1] = experiment: whole plant or invertebrate; format: in vivo, Phytophthora infestans on tomato; conditions: in Solanum lycopersicum, read-out: control (efficacy, disease severity) compared to the untreated check
Colletotrichum capsici = Colletotrichum capsici (anthracnose) mycelial radial growth on potato dextrose agar; format: cell-based; conditions: Colletotrichum truncatum, 168 h, 25° C., seven days, read-out: control compared to the untreated check
Procedure, shortened: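 Compounds in 0.3% DMSO were mixed into potato dextrose agar, and each plate was seeded with a 5 mm mycelial disc from an actively growing culture. Plates were incubated at 25° C and 60% relative humidity for seven days. Radial growth was compared with untreated control.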

Pyricularia oryzae = experiment: microbe, parasite or virus in culture; format: cell-based; conditions: 168 h, read-out: control compared to the untreated check
Phakopsora pachyrhizi = Phakopsora pachyrhizi test on soybean, preventive, greenhouse; format: in vivo; conditions: preventive spray on soybean, inoculated one day after treatment, read-out: control (efficacy, disease severity) compared to the untreated check
Procedure, shortened: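 Preventive protocol: plants inoculated with a 2×10^5 P. pachyrhizi conidial suspension one day after spray application at the stated rate, then incubated at 22-24 °C and 80-90% RH. Compound was applied from 2% DMSO/acetone diluted in emulsified water.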

Botrytis cinerea [2] = experiment: Botrytis cinerea test on tomato, preventive, greenhouse; format: in vivo; conditions: preventive spray on bean/chili plants (heading: tomato), inoculated one day after treatment, read-out: control (efficacy, disease severity) compared to the untreated check
Phytophthora infestans [3] = experiment: microbe, parasite or virus in culture; format: cell-based; conditions: 168 h, read-out: control compared to the untreated check
Venturia Inequalis = experiment: Venturia inequalis (VENTIN) spore growth inhibition in liquid medium, 96-well microtiter plate, OD 600; format: cell-based; conditions: spore suspension in PDB liquid medium, 18° C., 15-18 days, OD at 600, read-out: control compared to the untreated check
Method: Potato dextrose (PDB) liquid medium containing a VENTIN (10^5 spores/ml) spore suspension was prepared. For the inhibition assay, each test compound was solved in dimethyl sulfoxide. 100 μl of the test compound in media-solution was added to a 96-well microtiter plate, consequently, the same volume (100 μl) of spore suspension was added to the well making the final test concentrations and the treated plate was incubated at 18° C. for 15-18 days. The growth inhibition was evaluated by measuring the OD at 600. Percent inhibition was calculated with the below formula: […]

Fusarium culmorum = Fusarium culmorum test on wheat, preventive, greenhouse; format: in vivo; conditions: preventive spray on wheat, inoculated one day after treatment, read-out: control (efficacy, disease severity) compared to the untreated check
Method: The respective compound was dissolved in 2% dimethyl sulfoxide/acetone and then mixed with water containing an emulsifier to a calibrated spray volume of 30 mL. Each spray solution was poured into a spray bottle for further application.
as §1, with “wheat” for “tomato”, “after the” for “after”, “2×10^6 Fusarium culmorum” for “0.24×10^6 Alternaria solani”, “24°” for “22-24°”, “80-90%” for “90-95%”
as §2

Parastagonospora nodorum = Parastagonospora nodorum (PARANO) spore growth inhibition in liquid medium, 96-well microtiter plate, OD 600; format: cell-based; conditions: spore suspension in PDB liquid medium, 18° C., 5-6 days, OD at 600, read-out: control compared to the untreated check
Procedure, shortened: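 Read-out is percent growth inhibition from OD at 600 after 5-6 days at 18° C. Compounds, dissolved in DMSO, were diluted in potato dextrose broth and combined in equal volume with a 10^5 spores/ml suspension of PARANO.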

Botrytis cinerea [4] = experiment: Botrytis cinerea liq. (BOTRCI) spore growth inhibition in liquid medium, 96-well microtiter plate, OD 405 nm; format: cell-based; conditions: spore suspension in YBA liquid medium, 22° C., 5-6 days, OD at 405 nm, read-out: control compared to the untreated check
Procedure, shortened: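 Spore suspension of B. cinerea (10^4 spores/ml) in YBA liquid medium mixed 1:1 with compound diluted from DMSO. Incubated at 22° C. for 5-6 days. Growth read as OD 405 nm; percent inhibition derived from treatment, untreated-control and blank readings.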

Botrytis cinerea [5] = experiment: Botrytis cinerea (gray mold) mycelial radial growth on potato dextrose agar; format: cell-based; conditions: 168 h, 22° C., seven days, read-out: control compared to the untreated check
Procedure, shortened: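 Compounds in 0.3% DMSO were mixed into potato dextrose agar, and plates were seeded with 5 mm mycelial discs from actively growing virulent culture. After seven days at 22 °C and 90% relative humidity, radial growth was measured relative to untreated control.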

CC(c1ccccc1F)C(C)(C)NC(=O)c1cnc2c(ccn2C)c1 (stereo not drawn) [Compound 3, N-(3-(2-fluorophenyl)-2-methylbutan-2-yl)-1-methyl-1H-pyrrolo[2,3-b]pyridine-5-carboxamide]
≥ 70%: pest or weed control at 500 ppm (Alternaria solani) | pest or weed control at 500 ppm (Phytophthora infestans [1]) | inhibition of growth at 300 ppm (Colletotrichum capsici) | inhibition of growth at 300 ppm (Pyricularia oryzae)

Cn1ccc2cc(C(=O)NC(C)(C)Cc3ccc(OC(F)(F)F)cc3)cnc21 [Compound 19, 1-methyl-N-(2-methyl-1-(4-(trifluoromethoxy)phenyl)propan-2-yl)-1H-pyrrolo[2,3-b]pyridine-5-carboxamide]
≥ 70%: pest or weed control at 500 ppm (Phakopsora pachyrhizi) | pest or weed control at 500 ppm (Alternaria solani) | pest or weed control at 500 ppm (Botrytis cinerea [2])

CC(C)(Cc1ccccc1)NC(=O)c1cnc2ccsc2c1 [Compound 30, N-(2-methyl-1-phenylpropan-2-yl)thieno[3,2-b] pyridine-6-carboxamide]
≥ 70%: pest or weed control at 500 ppm (Alternaria solani) | inhibition of growth at 300 ppm (Phytophthora infestans [3]) | inhibition of growth at 300 ppm (Pyricularia oryzae) | pest or weed control at 500 ppm (Botrytis cinerea [2])

CC(C)CC(C)(Cc1ccccc1)NC(=O)c1cnc2c(c1)CCCC2 (stereo not drawn) [Compound 44, N-(2,4-dimethyl-1-phenylpentan-2-yl)-5,6,7,8-tetrahydroquinoline-3-carboxamide]
≥ 70%: pest or weed control at 500 ppm (Phakopsora pachyrhizi) | inhibition of growth at 300 ppm (Venturia Inequalis) | pest or weed control at 500 ppm (Fusarium culmorum) | inhibition of growth at 300 ppm (Colletotrichum capsici) | inhibition of growth at 300 ppm (Parastagonospora nodorum) | inhibition of growth at 300 ppm (Pyricularia oryzae) | pest or weed control at 500 ppm (Botrytis cinerea [2])

CC(C)CC(C)(Cc1ccccc1)NC(=O)c1cnc2c(c1)CCC2 (stereo not drawn) [Compound 62, N-(2,4-dimethyl-1-phenylpentan-2-yl)-6,7-dihydro-5H-cyclopenta[b]pyridine-3-carboxamide]
≥ 70%: pest or weed control at 500 ppm (Phakopsora pachyrhizi) | inhibition of growth at 300 ppm (Venturia Inequalis) | pest or weed control at 500 ppm (Phytophthora infestans [1]) | pest or weed control at 500 ppm (Fusarium culmorum) | inhibition of growth at 300 ppm (Colletotrichum capsici) | pest or weed control at 500 ppm (Botrytis cinerea [2])

CC(C)CC(C)(Cc1ccccc1)NC(=O)c1cnc2cc[nH]c2c1 (stereo not drawn) [Compound 73, N-(2,4-dimethyl-1-phenylpentan-2-yl)-1H-pyrrolo[3,2-b]pyridine-6-carboxamide]
≥ 70%: pest or weed control at 500 ppm (Alternaria solani) | inhibition of growth at 300 ppm (Phytophthora infestans [3]) | inhibition of growth at 300 ppm (Venturia Inequalis) | pest or weed control at 500 ppm (Phytophthora infestans [1]) | inhibition of growth at 300 ppm (Colletotrichum capsici) | inhibition of growth at 300 ppm (Parastagonospora nodorum) | inhibition of growth at 300 ppm (Botrytis cinerea [4]) | inhibition of growth at 300 ppm (Botrytis cinerea [5]) | pest or weed control at 500 ppm (Botrytis cinerea [2])

CC(Cc1ccccc1)C(C)(C)NC(=O)c1cnc2c(ccn2C)c1 (stereo not drawn) [Compound 80, N-(2,3-dimethyl-4-phenylbutan-2-yl)-1-methyl-1H-pyrrolo[2,3-b]pyridine-5-carboxamide]
≥ 70%: pest or weed control at 500 ppm (Alternaria solani) | inhibition of growth at 300 ppm (Venturia Inequalis) | pest or weed control at 500 ppm (Phytophthora infestans [1]) | inhibition of growth at 300 ppm (Colletotrichum capsici) | inhibition of growth at 300 ppm (Parastagonospora nodorum)

COc1nc2c(ccn2C)cc1C(=O)NC(C)(Cc1ccccc1)CC(C)C (stereo not drawn) [Compound 92, N-(2,4-dimethyl-1-phenylpentan-2-yl)-6-methoxy-1-methyl-1H-pyrrolo[2,3-b]pyridine-5-carboxamide]
≥ 70%: inhibition of growth at 300 ppm (Phytophthora infestans [3]) | pest or weed control at 500 ppm (Fusarium culmorum) | pest or weed control at 500 ppm (Botrytis cinerea [2])

Cc1cc2cc(C(=O)NC(C)(C)Cc3ccc(Cl)cc3)cnc2n1C [Compound 101, N-(1-(4-chlorophenyl)-2-methylpropan-2-yl)-1,2-dimethyl-1H-pyrrolo[2,3-b]pyridine-5-carboxamide]
≥ 70%: pest or weed control at 500 ppm (Phakopsora pachyrhizi) | pest or weed control at 500 ppm (Fusarium culmorum) | inhibition of growth at 300 ppm (Colletotrichum capsici) | inhibition of growth at 300 ppm (Parastagonospora nodorum) | inhibition of growth at 300 ppm (Botrytis cinerea [4]) | inhibition of growth at 300 ppm (Botrytis cinerea [5])

Cc1ccc(CC(C)(C)NC(=O)c2cnc3c(c2)cc(C)n3C)cc1 [Compound 102, 1,2-dimethyl-N-(2-methyl-1-(p-tolyl)propan-2-yl)-1H-pyrrolo[2,3-b]pyridine-5-carboxamide]
≥ 70%: pest or weed control at 500 ppm (Phakopsora pachyrhizi) | inhibition of growth at 300 ppm (Venturia Inequalis) | pest or weed control at 500 ppm (Fusarium culmorum) | inhibition of growth at 300 ppm (Colletotrichum capsici) | inhibition of growth at 300 ppm (Parastagonospora nodorum) | pest or weed control at 500 ppm (Botrytis cinerea [2])

Cc1cc2cc(C(=O)NC(C)(C)Cc3ccccc3F)cnc2n1C [Compound 103, N-(1-(2-fluorophenyl)-2-methylpropan-2-yl)-1,2-dimethyl-1H-pyrrolo[2,3-b]pyridine-5-carboxamide]
≥ 70%: pest or weed control at 500 ppm (Phakopsora pachyrhizi) | pest or weed control at 500 ppm (Fusarium culmorum) | inhibition of growth at 300 ppm (Colletotrichum capsici) | inhibition of growth at 300 ppm (Parastagonospora nodorum)

CC(C)(NC(=O)c1cnc2ccsc2c1)C(O)c1ccccc1 (stereo not drawn) [Compound 118, N-(1-hydroxy-2-methyl-1-phenylpropan-2-yl)thieno[3,2-b] pyridine-6-carboxamide]
≥ 70%: pest or weed control at 500 ppm (Alternaria solani) | inhibition of growth at 300 ppm (Parastagonospora nodorum) | inhibition of growth at 300 ppm (Botrytis cinerea [4]) | inhibition of growth at 300 ppm (Botrytis cinerea [5])

C=C(C)CC(C)(COc1ccc(F)cc1)NC(=O)c1cc2cc[nH]c2nc1C (stereo not drawn) [Compound 128, N-(1-(4-fluorophenoxy)-2,4-dimethylpent-4-en-2-yl)-6-methyl-1H-pyrrolo[2,3-b]pyridine-5-carboxamide]
≥ 70%: pest or weed control at 500 ppm (Alternaria solani) | pest or weed control at 500 ppm (Botrytis cinerea [2])

CCC(O)(CC)C(NC(=O)c1cnc2ccsc2c1)c1ccc(F)cc1 (stereo not drawn) [Compound 132, N-(2-ethyl-1-(4-fluorophenyl)-2-hydroxybutyl)thieno [3,2-b]pyridine-6-carboxamide]
≥ 70%: pest or weed control at 500 ppm (Phakopsora pachyrhizi) | pest or weed control at 500 ppm (Alternaria solani) | inhibition of growth at 300 ppm (Venturia Inequalis)

Cc1ccccc1C(=O)OCC(C)(C)NC(=O)c1cnc2c(c1)CCCC2 [Compound 151, 2-methyl-2-(5,6,7,8-tetrahydroquinoline-3-carboxamido)propyl 2-methylbenzoate]
≥ 70%: pest or weed control at 500 ppm (Phakopsora pachyrhizi) | pest or weed control at 500 ppm (Alternaria solani) | inhibition of growth at 300 ppm (Parastagonospora nodorum) | pest or weed control at 500 ppm (Botrytis cinerea [2])

Cn1cc(Cl)c2cc(C(=O)NC(C)(C)COC(=O)c3cccc(F)c3)cnc21 [Compound 153, 2-(3-chloro-1-methyl-1H-pyrrolo[2,3-b]pyridine-5-carboxamido)-2-methylpropyl 3-fluorobenzoate]
≥ 70%: pest or weed control at 500 ppm (Alternaria solani) | inhibition of growth at 300 ppm (Parastagonospora nodorum) | pest or weed control at 500 ppm (Botrytis cinerea [2])

C=C(C)CC(C)(COc1ccccc1F)NC(=O)c1cnc2c(ccn2C)c1 (stereo not drawn) [Compound 155, N-(1-(2-fluorophenoxy)-2,4-dimethylpent-4-en-2-yl)-1-methyl-1H-pyrrolo[2,3-b]pyridine-5-carboxamide]
≥ 70%: pest or weed control at 500 ppm (Phakopsora pachyrhizi) | inhibition of growth at 300 ppm (Venturia Inequalis) | pest or weed control at 500 ppm (Fusarium culmorum) | inhibition of growth at 300 ppm (Colletotrichum capsici) | inhibition of growth at 300 ppm (Parastagonospora nodorum)
